Assay results reported in patent publication US20120022113A1, “METHODS FOR S[…] T[…] ACCUMULATION AND PREVENTING HYPERCYTOKINEMIA” (priority 2009, published 2012).

Assays:
[1] = tested on: H1N1 A/Puerto Rico/8/34 (PR8) influenza A virus; parameters: species or system B6 mice; details: mouse, in vivo
[2] = tested on: influenza virus in madin-darby canine kidney (MDCK) cells; assay: Virus replication in MDCK cells; details: up to 1 μg/ml, compared to PBS

With `CCc1ccc(CCOc2ccc(CC3SC(=O)NC3=O)cc2)nc1` (centres unmarked) [pioglitazone] the mortality [1] was 50% and the “inhibition of virus replication in MDCK cells” value [2] was “did not inhibit”.
